According to patent publication US20070155720A1, “Co-administration of dopamine-receptor binding compounds” (DarPharma, Inc., priority 2003, published 2007):
Structures can show the parent of a compound that is named as a salt. Where two headings read alike, the source gives them in different places. One block for each compound: values may come before it.

Assays:
monkeys = details: aged and reserpine-treated monkeys; cited from earlier work
D1 receptor = D1 receptor (Homo sapiens, UniProt P21728); assay: Affinity and selectivity for the D1 receptor stated in the description, no method given; format: binding; details: exemplary compounds, b98
Chain of D1 receptor (P21728 whole entry): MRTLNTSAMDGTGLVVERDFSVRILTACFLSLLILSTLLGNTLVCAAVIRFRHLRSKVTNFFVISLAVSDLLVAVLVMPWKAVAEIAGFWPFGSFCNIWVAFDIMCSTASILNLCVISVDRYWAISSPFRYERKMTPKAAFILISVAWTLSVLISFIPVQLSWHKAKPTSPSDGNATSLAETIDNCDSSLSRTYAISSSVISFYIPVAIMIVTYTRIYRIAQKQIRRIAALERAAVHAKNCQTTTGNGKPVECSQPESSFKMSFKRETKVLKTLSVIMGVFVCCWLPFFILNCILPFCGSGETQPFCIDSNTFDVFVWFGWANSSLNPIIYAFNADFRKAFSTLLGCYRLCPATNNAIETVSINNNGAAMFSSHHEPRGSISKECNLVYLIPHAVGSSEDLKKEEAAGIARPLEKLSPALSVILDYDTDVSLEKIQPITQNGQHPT

[1] = test system: rats with scopolamine-induced deficits; assay: Passive avoidance in rats, scopolamine-induced amnesia; format: in vivo, rat; details: 3.0 mg/kg ip
Method: The protocol summarized below is one of many variants of the passive avoidance procedure using scopolamine-induced amnesia (for review see Rush, Behav Neural Biol 50:255-274, 1988). This procedure is commonly used to identify drugs that may be useful in treating cognitive deficits, particularly those observed in AD. The effects of the D
Testing was conducted in standard 2-compartment rectangular passive avoidance chambers (San Diego Instruments, San Diego, Calif.) with black plexiglas sides and grid floors. The light compartment of the chambers were illuminated by a 20 W lamp located in this compartment; the dark side of the chambers will be shielded from light, except for light penetrating the opening connecting the two compartments of each chamber.
On training day, groups of 8 rats were injected with scopolamine (3.0 mg/kg, ip) or vehicle (1.0 ml/kg) 30 min prior to training. Scopolamine served as the dementing agent in this experiment. Ten min prior to training, each group of rats received a second injection of vehicle or a dose of DHX. At the end of the pretreatment interval, each rat was placed individually in the light compartment facing away from the opening between compartments. The latency for each rat to travel from the light to the dark compartment was measured up to a maximum of 300 sec; any animal not entering the dark compartment within 300 sec was discarded from the test group. Once the animal entered the dark compartment completely, a 1.0 milliampere, 3.0 sec scrambled shock was delivered to the entire grid floor. The animal was allowed to remain in the dark compartment during this 3.0 sec period or to escape to the light compartment. Each rat was then returned immediately to its home cage.
Twenty-four hr after training, each rat was tested in the same apparatus for retention of the task (to remain passively in the light compartment). […] The latency for animals to enter the dark compartment on test day (step-through latency) was recorded up to a maximum of 600 sec. Each animal was used only once in a single experiment.
A one-way analysis of variance (ANOVA) and Newman-Keuls post-hoc comparisons were used to identify significant deficits in passive avoidance responding produced by scopolamine and their reversal by DHX; a p value of less than 0.05 was used as the level of significance.

D4 receptor [2] = target: T1, D4 receptor (Rattus norvegicus, UniProt P30729); assay: Inhibition of forskolin-stimulated adenylate cyclase through D4 receptors in CHO cells; format: cell-based
T1 sequence (P30729 1-387): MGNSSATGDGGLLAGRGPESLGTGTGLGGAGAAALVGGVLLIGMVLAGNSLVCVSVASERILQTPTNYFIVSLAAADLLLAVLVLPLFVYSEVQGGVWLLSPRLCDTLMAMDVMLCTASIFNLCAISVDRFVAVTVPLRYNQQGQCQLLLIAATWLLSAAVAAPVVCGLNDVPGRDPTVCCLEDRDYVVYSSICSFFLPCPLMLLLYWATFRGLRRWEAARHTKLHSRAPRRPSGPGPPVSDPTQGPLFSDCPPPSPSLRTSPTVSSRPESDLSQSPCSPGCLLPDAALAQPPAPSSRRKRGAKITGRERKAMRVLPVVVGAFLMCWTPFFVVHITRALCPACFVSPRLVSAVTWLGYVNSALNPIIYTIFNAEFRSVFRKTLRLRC

D1 receptors = target: T2, D1 receptors (Rattus norvegicus, UniProt P18901); assay: Affinity for D1 receptors in rat brain striatal homogenates labeled with 3H-SCH 23390; format: binding; details: for D1:D2 Selectivity: ratio of D2 to D1 affinity, rat striatal homogenates
T2 construct: utilizing rat brain striatal homogenates having D1 and D2 receptors; from tissue; host or cells: rat brain striatum homogenate
T2 sequence (P18901 whole entry): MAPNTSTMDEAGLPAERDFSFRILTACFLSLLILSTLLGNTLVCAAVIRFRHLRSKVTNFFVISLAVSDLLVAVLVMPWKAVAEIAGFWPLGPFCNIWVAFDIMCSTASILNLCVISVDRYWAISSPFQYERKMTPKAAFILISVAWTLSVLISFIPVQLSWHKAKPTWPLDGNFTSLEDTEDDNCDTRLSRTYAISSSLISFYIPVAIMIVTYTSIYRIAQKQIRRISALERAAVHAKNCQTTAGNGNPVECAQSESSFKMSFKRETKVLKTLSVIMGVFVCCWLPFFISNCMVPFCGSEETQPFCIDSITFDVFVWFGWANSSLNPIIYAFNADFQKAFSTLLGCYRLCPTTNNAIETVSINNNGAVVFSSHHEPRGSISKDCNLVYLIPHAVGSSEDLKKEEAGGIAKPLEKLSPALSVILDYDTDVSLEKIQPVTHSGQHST

dopamine D1 receptor = dopamine D1 receptor (Homo sapiens, UniProt P21728); assay: D1 activity of hexahydrobenzo[a]phenanthridines, structure-activity statements; details: relative to dihydrexidine
Chain of dopamine D1 receptor (P21728 whole entry): as the sequence (P21728 whole entry) above

D2 receptor = D2 receptor (Homo sapiens, UniProt P14416); assay: D2 potency of substituted hexahydrobenzo[a]phenanthridines, structure-activity statement; details: relative to dihydrexidine
Chain of D2 receptor (P14416 whole entry): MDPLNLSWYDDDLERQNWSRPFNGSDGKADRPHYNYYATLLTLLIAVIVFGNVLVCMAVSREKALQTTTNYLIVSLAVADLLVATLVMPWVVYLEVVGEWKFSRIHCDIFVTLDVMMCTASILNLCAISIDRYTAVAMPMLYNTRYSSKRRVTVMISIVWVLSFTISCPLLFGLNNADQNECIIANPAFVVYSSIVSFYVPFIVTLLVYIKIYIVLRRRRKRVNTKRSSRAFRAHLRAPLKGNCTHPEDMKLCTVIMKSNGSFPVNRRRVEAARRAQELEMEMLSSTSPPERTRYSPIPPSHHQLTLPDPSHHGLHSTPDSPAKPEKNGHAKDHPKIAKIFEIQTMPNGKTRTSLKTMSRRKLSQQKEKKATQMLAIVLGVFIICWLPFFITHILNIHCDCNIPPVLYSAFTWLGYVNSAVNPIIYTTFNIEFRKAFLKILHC

[3] = test system: adenylate cyclase in rat brain striatum; assay: Activation of adenylate cyclase in rat brain striatum; format: biochemical; details: compared with dopamine
D2L receptors = D2L receptors (Homo sapiens, UniProt P14416); assay: Inhibition of forskolin-stimulated adenylate cyclase through D2L receptors in CHO cells; format: cell-based; details: compared with quinpirole
Chain of D2L receptors (P14416 whole entry): as above

[4] = Half-life and duration of functional activity; format: in vivo
D4 receptor [5] = target: T1, D4 receptor; assay: Binding, cloned D4 receptor in CHO cells; set-up: expressed in transfected cells; host or cells: CHO cells; details: read-out: Cloned Receptors D4 CHO (rat)

SMILES: Cc1cccc2c1CN[C@H]1CCc3cc(O)c(O)cc3[C@H]21.Cl (relative stereo)
melting point: 195 °C (dec.)

SMILES: Oc1cc2c(cc1O)C(c1ccccc1)CNCC2 (centres unmarked) [SKF 38393, reference compound]
Spatial working memory (monkeys): improved spatial working memory

SMILES: CN1[C@@H]2C[C@@H](OC(=O)[C@H](CO)c3ccccc3)C[C@H]1[C@@H]1O[C@@H]12 [Scopolamine, reference compound]
Acquisition of the passive avoidance task [1]: severe deficit

SMILES: Oc1ccc2c(c1O)Cc1cccc3c1C2CNC3 (centres unmarked) (as salt: hydrobromid) [Compound 29, 8,9-Dihydroxy-2,3,7,11b-tetrahydro-1H-napth[1,2,3-de]isoquinoline]
melting point: 258 °C (dec.)

SMILES: NCCc1ccc(O)c(O)c1 [dopamine]
EC50 (D4 receptor [2]; read-out: EC50 (nM) ± SEM, D4, inhibition of forskolin-stimulated AC, mean ± SEM, at least three experiments): 1750 ± 682 nM

SMILES: Cl.Oc1cc2c(cc1O)[C@@H]1c3cc(Cc4ccccc4)ccc3CN[C@H]1CC2 (relative stereo) [Compound 6e, Trans-2-benzyl-10,11-dihydroxy-5,6,6a,7,8,12b-hexahydrobenzo[a]phenanthridine hydrochloride]
Ki (D1 receptors; rat brain striatal homogenates, 3H-SCH 23390, read-out: D1 Affinity): 0.29 µM
D1:D2 Selectivity (D1 receptors): 0.6

SMILES: Cc1ccc2c(c1)[C@H]1c3cc(O)c(O)cc3CC[C@@H]1NC2.Cl (relative stereo) [Compound 6b, Trans-2-methyl-10,11-dihydroxy-5,6,6a,7,8,12b-hexahydrobenzo [a]phenanthridine hydrochloride]
D1 potency and efficacy (dopamine D1 receptor): comparable to dihydrexidine
melting point: 190 °C (dec.)

SMILES: Cc1ccc2c(c1)CN[C@H]1CCc3cc(O)c(O)cc3[C@H]21.Cl (relative stereo) [Compound 6c, Trans-3-methyl-10,11-dihydroxy-5,6,6a,7,8,12b-hexahydrobenzo[a]phenanthridine hydrochloride]
Ki (D1 receptors): 0.007 µM
D1:D2 Selectivity (D1 receptors): 6
D1 potency and efficacy (dopamine D1 receptor): comparable to dihydrexidine
D2 potency (D2 receptor): greater D2 potency
melting point: 190 °C (dec.)

SMILES: Oc1ccc2c(c1O)Cc1cccc3c1C2CNC3 (centres unmarked) [Compound 29, 8,9-Dihydroxy-2,3,7,11b-tetrahydro-1H-napth[1,2,3-de]isoquinoline]
Effectiveness in activating adenylate cyclase [3]: as effective as dopamine
Effectiveness in activating adenylate cyclase when receptor reserve is reduced ([3]; receptor reserve reduced): as effective as dopamine
Agonist activity for inhibition of cAMP synthesis at D2L receptors (D2L receptors): full agonist
Agonist activity for inhibition of cAMP synthesis at D4 receptors (D4 receptor [2]): full agonist
EC50 (D4 receptor [2]; inhibition of forskolin-stimulated AC, mean ± SEM, at least three experiments, read-out: EC50 (nM) ± SEM, D4): 60 ± 18 nM
Duration of functional activity ([4]; in vivo): 7 to 10 h
half-life ([4]; serum, read-out: Serum half-life (converted)): 3 h
Ki (D4 receptor [5]): 0.06 µM

Now from value to compound, other results behind:

melting point: 298 to 302 °C (dec.)
SMILES: Br.Oc1ccc2c(c1O)Oc1cccc3c1C2CNC3 (centres unmarked) [Compound 16a, 8,9-dihydroxy-1,2,3,11b-tetrahydrochromeno[4,3,2-de]isoquinoline hydrobromide]
D1:D2 selective (D1 receptor): equally high affinity for both receptor subtypes

melting point: 259 to 264 °C (dec.)
SMILES: CCCN1Cc2cccc3c2C(C1)c1ccc(O)c(O)c1O3 (centres unmarked) [Compound 16c, N-propyl-8,9-dihydroxy-1,2,3,11b-tetrahydrochromeno[4,3,2-de]isoquinoline]

melting point: 251 to 253 °C (dec.)
SMILES: C=CCN1Cc2cccc3c2C(C1)c1ccc(O)c(O)c1O3 (centres unmarked) [Compound 16b, N-allyl-8,9-dihydroxy-1,2,3,11b-tetrahydrochromeno[4,3,2-de]isoquinoline]
